Results taken from patent US9131694B2, “Insecticidal pyridine compounds” (Dow AgroSciences, LLC, priority 2009, dated 2015).

Assays:
[1] = tested on: Beet Armyworm (Spodoptera exigua); assay: Insecticidal test for beet armyworm, treated lepidopteran diet; assay type: in vivo; conditions: 2000 ppm test solution, 50 μL per well on diet (50 g/cm^2 dose), second-instar larvae, observed 2 and 5 days after treatment
Protocol: Insecticidal Test for Beet Armyworm (Spodoptera exigua). To prepare test solution, the test compound was formulated at 2000 ppm solution in 2 mL of 9 acetone: 1 tap water. 50 μL of the test solution ([…] dose for each well) was pipetted upon the surface of 1 mL of lepidopteran diet (Southland Multi-Species Lepidopteran Diet) contained in each of eight wells per insect species (one well=1 replication). A second-instar beet armyworm was placed upon the treated diet in each well (one insect per well) once the solvent had air-dried. Trays containing the treated diet and larvae were covered and then held in a growth chamber at 25° C., 50-55% RH, and 16 hr light:8 hr dark for 5 days. Observation were conducted 2 and 5 days after treatment and infestation to score the number of dead insects per 8-well treatment. The results of this test are set forth in the column labelled “Beet Armyworm” in Table 1 below, in which letter designations represent ranges of percent control as set forth above.

[2] = tested on: Green Peach Aphid (Myzus persicae); assay: Insecticidal test for green peach aphid in foliar spray assay on cabbage seedlings; assay type: in vivo; conditions: 200 ppm foliar spray on infested cabbage seedlings, graded after three days
Protocol: Insecticidal Test for Green Peach Aphid (Myzus persicae) in Foliar Spray Assay Cabbage seedlings grown in 3-inch pots, with 2-3 small (3-5 cm) true leaves, were used as test substrate. The seedlings were infested with 20-50 green peach aphids (wingless adult and nymph) 1-2 days prior to chemical application. Four seedlings were used for each treatment. Selected compounds (2 mg), many of which are described above, were dissolved in 2 ml of acetone:methanol (1:1) solvent, forming stock solutions of 1000 ppm. The stock solutions were diluted 5× with 0.025% Tween 20 in H2O to obtain a solution at 200 ppm. A hand-held Devilbiss aspirator sprayer was used for spraying a solution to both sides of cabbage leaves until runoff. Reference plants (solvent check) were sprayed with the diluent only. Treated plants were held in a holding room for three days at approximately 23° C. and 40% relative humidity prior to grading. Evaluation was conducted by counting the number of live aphids per plant under a microscope. Insecticidal activity was measured by using Abbott's correction formula: Corrected % Control=100*(X−Y)/X • where • X=No. of live aphids on solvent check plants • Y=No. of live aphids on treated plants The results of this test are set forth in the column labelled “Green Peach Aphid” in Table 1 below, in which letter designations represent ranges of percent control as follows: • A=80-100% control • B=60-79% control • C=40-59% control • D=20-39% control • E=0-19% control

Compound	Beet Armyworm percent control [1]	Green Peach Aphid percent control (Abbott corrected % control) [2]
FC(F)(F)c1cc(-n2c(-c3ccccn3)nc3ccccc32)nc(Cl)c1Cl	D (D=20-39% control)	D (D=20-39% control)
FC(F)(F)c1cc(N2CCCC2c2ccccn2)nc(Cl)c1Br (stereo not drawn)	E (E=0-19% control)	D (D=20-39% control)
FC(F)(F)c1cc(N2CCCC2c2ccccn2)ncc1Cl (stereo not drawn)	D (D=20-39% control)	E (E=0-19% control)
FC(F)(F)c1c(Cl)cnc(N2CCCC2c2ccccn2)c1Cl (stereo not drawn)	B (B=60-79% control)	E (E=0-19% control)
FC(F)(F)c1cc(N2CCCC2c2ccccn2)nc(Cl)c1Cl (stereo not drawn) [Compound 1, 6-[2-(2-Pyridyl)-1-pyrrolidinyl]-4-trifluoromethyl-2,3-dichloropyridine]	B (B=60-79% control)	A (A=80-100% control)
FC(F)(F)c1cc(Cl)nc(N2CCCC2c2ccccn2)c1Cl (stereo not drawn) [Compound 2, 6-[2-(2-pyridyl)-1-pyrrolidinyl]-4-trifluoromethyl-2,5-dichloropyridine]	B (B=60-79% control)	C (C=40-59% control)
FC(F)(F)c1cc(N2CCCCC2c2ccccn2)nc(Cl)c1Cl (stereo not drawn) [Compound 6]	A (A=80-100% control)	D (D=20-39% control)
C[Si](C)(C)c1c(C(F)(F)F)cc(N2CCCC2c2ccccn2)nc1Cl (stereo not drawn) [Compound 10]	E (E=0-19% control)	E (E=0-19% control)
CC(C)C1COC(c2ccccn2)N1c1cc(C(F)(F)F)c(C#N)c(Cl)n1 (stereo not drawn) [Compound 12, 2-chloro-6-[4-isopropyl-2-(2-pyridyl)oxazolidin-3-yl]-4-(trifluoromethyl)pyridine-3-carbonitrile]	E (E=0-19% control)	D (D=20-39% control)
CC1COC(c2ccccn2)N1c1cc(C(F)(F)F)c(C#N)c(Cl)n1 (stereo not drawn) [Compound 16, 2-chloro-6-[4-methyl-2-(2-pyridyl)oxazolidin-3-yl]-4-(trifluoromethyl)pyridine-3-carbonitrile]	E (E=0-19% control)	E (E=0-19% control)
N#Cc1c(C(F)(F)F)cc(N2C(c3ccccc3)COC2c2ccccn2)nc1Cl (stereo not drawn) [Compound 18, 2-chloro-6-[4-phenyl-2-(2-pyridyl)oxazolidin-3-yl]-4-(trifluoromethyl)pyridine-3-carbonitrile]	E (E=0-19% control)	E (E=0-19% control)
CCC1CN(c2cc(C(F)(F)F)c(C#N)c(Cl)n2)C(c2ccccn2)O1 (stereo not drawn) [Compound 19, 2-Chloro-6-[5-ethyl-2-(2-pyridyl)oxazolidin-3-yl]-4-(trifluoromethyl)pyridine-3-carbonitrile]	C (C=40-59% control)	C (C=40-59% control)
